Test system: 857933-349-R-J2-PDC complex spheroids, viability
Assay: Anticancer human tumor 857933-349-R-J2-PDC patient-derived colon adenocarcinoma cell line growth inhibition [GQUAD]
Conditions: for IC50: curve of first compound; for viability, T/C: stronger effect = lower value
Summary of the method: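 Viability of tumor cells grown as complex spheroids with endothelial and stromal cells, exposed to drug combinations. Top concentration at or near clinical Cmax (else 10 microM), diluted in half-log increments.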

[1] = second compound 0.0316 µM, first compound 0.0316 µM
[2] = second compound 0.0316 µM, first compound 0.1 µM
[3] = second compound 0.0316 µM, first compound 0.316 µM
[4] = second compound 0.0316 µM, first compound 1 µM
[5] = second compound 0.0316 µM, first compound 3.16 µM
[6] = second compound 0.0316 µM, first compound 10 µM
[7] = second compound 0.1 µM, first compound 0.0316 µM
[8] = second compound 0.1 µM, first compound 0.1 µM
[9] = second compound 0.1 µM, first compound 0.316 µM
[10] = second compound 0.1 µM, first compound 1 µM
[11] = second compound 0.1 µM, first compound 3.16 µM
[12] = second compound 0.1 µM, first compound 10 µM
[13] = second compound 0.316 µM, first compound 0.0316 µM
[14] = second compound 0.316 µM, first compound 0.1 µM
[15] = second compound 0.316 µM, first compound 0.316 µM
[16] = second compound 0.316 µM, first compound 1 µM
[17] = second compound 0.316 µM, first compound 3.16 µM
[18] = second compound 0.316 µM, first compound 10 µM
[19] = second compound 1 µM, first compound 0.0316 µM
[20] = second compound 1 µM, first compound 0.1 µM
[21] = second compound 1 µM, first compound 0.316 µM
[22] = second compound 1 µM, first compound 1 µM
[23] = second compound 1 µM, first compound 3.16 µM
[24] = second compound 1 µM, first compound 10 µM
[25] = second compound 3.16 µM, first compound 0.0316 µM
[26] = second compound 3.16 µM, first compound 0.1 µM
[27] = second compound 3.16 µM, first compound 0.316 µM
[28] = second compound 3.16 µM, first compound 1 µM
[29] = second compound 3.16 µM, first compound 3.16 µM
[30] = second compound 3.16 µM, first compound 10 µM
[31] = second compound 10 µM, first compound 0.0316 µM
[32] = second compound 10 µM, first compound 0.1 µM
[33] = second compound 10 µM, first compound 0.316 µM
[34] = second compound 10 µM, first compound 1 µM
[35] = second compound 10 µM, first compound 3.16 µM
[36] = second compound 10 µM, first compound 10 µM
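Further: spheroids exposed to compounds for one week before readout.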
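Wherever viability, T/C is given: percent viability relative to vehicle DMSO wells taken as 100%.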

`CC(C)n1c(=O)n(C)c2cnc3cc(F)c(-c4ccc(OCCCN5CCCCC5)nc4)cc3c21` + CN(C)c1ccc(Nc2c3ccc(NC(=O)CCN4CCCC4)cc3nc3cc(NC(=O)CCN4CCCC4)ccc23)cc1 gave an IC50 (second compound 0.0316 µM) of over 10 µM, an IC50 (second compound 0.1 µM) of over 10 µM and an IC50 (second compound 0.316 µM) of over 10 µM. It also gave an IC50 (second compound 1 µM) of over 10 µM, an IC50 (second compound 3.16 µM) of over 10 µM and an IC50 (second compound 10 µM) of over 10 µM. The viability, T/C [1] was 108%, the viability, T/C [2] was 96.8% and the viability, T/C [3] was 108%. For the same compound, the viability, T/C [4] was 104%, the viability, T/C [5] was 105% and the viability, T/C [6] was 102%. It also gave a viability, T/C [7] of 103%, a viability, T/C [8] of 101% and a viability, T/C [9] of 103%. It also gave a viability, T/C [10] of 105%, a viability, T/C [11] of 104% and a viability, T/C [12] of 102%. For the same compound, the viability, T/C [13] was 103%, the viability, T/C [14] was 103% and the viability, T/C [15] was 104%. For the same compound, the viability, T/C [16] was 99.1%, the viability, T/C [17] was 115% and the viability, T/C [18] was 98.3%. For the same compound, the viability, T/C [19] was 101%, the viability, T/C [20] was 92.3% and the viability, T/C [21] was 103%. The viability, T/C [22] was 95%, the viability, T/C [23] was 103% and the viability, T/C [24] was 94%. For the same compound, the viability, T/C [25] was 90.7%, the viability, T/C [26] was 83.5% and the viability, T/C [27] was 93.1%. The viability, T/C [28] was 85.5%, the viability, T/C [29] was 98.1% and the viability, T/C [30] was 70.3%. It also gave a viability, T/C [31] of 72.8%, a viability, T/C [32] of 74.7% and a viability, T/C [33] of 76%. The viability, T/C [34] was 74.4%, the viability, T/C [35] was 74.9% and the viability, T/C [36] was 63.7%.

`CC[C@@]1(O)C(=O)OCc2c1cc1n(c2=O)Cc2cc3c(CN(C)C)c(O)ccc3nc2-1` + CN(C)c1ccc(Nc2c3ccc(NC(=O)CCN4CCCC4)cc3nc3cc(NC(=O)CCN4CCCC4)ccc23)cc1 showed an IC50 (second compound 0.0316 µM) of 0.262 µM, an IC50 (second compound 0.1 µM) of 0.272 µM and an IC50 (second compound 0.316 µM) of 0.277 µM. For the same compound, the IC50 (second compound 1 µM) was 0.296 µM, the IC50 (second compound 3.16 µM) was over 0.316 µM and the IC50 (second compound 10 µM) was over 0.316 µM. For the same compound, the viability, T/C (second compound 0.0316 µM, first compound 0.000999 µM) was 101%, the viability, T/C (second compound 0.0316 µM, first compound 0.00316 µM) was 103% and the viability, T/C (second compound 0.0316 µM, first compound 0.00999 µM) was 101%. For the same compound, the viability, T/C [1] was 98.2%, the viability, T/C (second compound 0.0316 µM, first compound 0.0999 µM) was 67% and the viability, T/C [3] was 46.7%. It also gave a viability, T/C (second compound 0.1 µM, first compound 0.000999 µM) of 105%, a viability, T/C (second compound 0.1 µM, first compound 0.00316 µM) of 109% and a viability, T/C (second compound 0.1 µM, first compound 0.00999 µM) of 95.3%. It also gave a viability, T/C [7] of 97.7%, a viability, T/C (second compound 0.1 µM, first compound 0.0999 µM) of 70.5% and a viability, T/C [9] of 47%. For the same compound, the viability, T/C (second compound 0.316 µM, first compound 0.000999 µM) was 108%, the viability, T/C (second compound 0.316 µM, first compound 0.00316 µM) was 101% and the viability, T/C (second compound 0.316 µM, first compound 0.00999 µM) was 98.7%. It also gave a viability, T/C [13] of 89.6%, a viability, T/C (second compound 0.316 µM, first compound 0.0999 µM) of 80.7% and a viability, T/C [15] of 45.1%. It also gave a viability, T/C (second compound 1 µM, first compound 0.000999 µM) of 99.7%, a viability, T/C (second compound 1 µM, first compound 0.00316 µM) of 99.1% and a viability, T/C (second compound 1 µM, first compound 0.00999 µM) of 95.9%. It also gave a viability, T/C [19] of 88.5%, a viability, T/C (second compound 1 µM, first compound 0.0999 µM) of 77.1% and a viability, T/C [21] of 48%. It also gave a viability, T/C (second compound 3.16 µM, first compound 0.000999 µM) of 94.2%, a viability, T/C (second compound 3.16 µM, first compound 0.00316 µM) of 77.4% and a viability, T/C (second compound 3.16 µM, first compound 0.00999 µM) of 84.7%. It also gave a viability, T/C [25] of 76.1%, a viability, T/C (second compound 3.16 µM, first compound 0.0999 µM) of 77.8% and a viability, T/C [27] of 54.5%. For the same compound, the viability, T/C (second compound 10 µM, first compound 0.000999 µM) was 72.3%, the viability, T/C (second compound 10 µM, first compound 0.00316 µM) was 76.8% and the viability, T/C (second compound 10 µM, first compound 0.00999 µM) was 69.5%. It also gave a viability, T/C [31] of 69.9%, a viability, T/C (second compound 10 µM, first compound 0.0999 µM) of 68.7% and a viability, T/C [33] of 59%.

For `Cc1cccc(N(C)C(=O)C2C(O)CCN2c2nc(C)cc(C(F)(F)F)c2C#N)c1` (stereo not drawn) + CN(C)c1ccc(Nc2c3ccc(NC(=O)CCN4CCCC4)cc3nc3cc(NC(=O)CCN4CCCC4)ccc23)cc1, the IC50 (second compound 0.0316 µM) was over 10 µM, the IC50 (second compound 0.1 µM) was over 10 µM and the IC50 (second compound 0.316 µM) was over 10 µM. It also gave an IC50 (second compound 1 µM) of over 10 µM, an IC50 (second compound 3.16 µM) of over 10 µM and an IC50 (second compound 10 µM) of over 10 µM. For the same compound, the viability, T/C [1] was 106%, the viability, T/C [2] was 106% and the viability, T/C [3] was 101%. For the same compound, the viability, T/C [4] was 105%, the viability, T/C [5] was 103% and the viability, T/C [6] was 99.3%. The viability, T/C [7] was 101%, the viability, T/C [8] was 107% and the viability, T/C [9] was 100%. For the same compound, the viability, T/C [10] was 102%, the viability, T/C [11] was 103% and the viability, T/C [12] was 99.2%. The viability, T/C [13] was 104%, the viability, T/C [14] was 103% and the viability, T/C [15] was 98.5%. For the same compound, the viability, T/C [16] was 102%, the viability, T/C [17] was 108% and the viability, T/C [18] was 98%. The viability, T/C [19] was 104%, the viability, T/C [20] was 90.3% and the viability, T/C [21] was 94.3%. The viability, T/C [22] was 93.5%, the viability, T/C [23] was 96.7% and the viability, T/C [24] was 88.2%. It also gave a viability, T/C [25] of 89.9%, a viability, T/C [26] of 78.1% and a viability, T/C [27] of 83.8%. The viability, T/C [28] was 78.6%, the viability, T/C [29] was 87% and the viability, T/C [30] was 74.2%. It also gave a viability, T/C [31] of 68.8%, a viability, T/C [32] of 71.7% and a viability, T/C [33] of 76.5%. It also gave a viability, T/C [34] of 74.7%, a viability, T/C [35] of 69.8% and a viability, T/C [36] of 63.5%.

In the case of `O=C(c1cc(Cc2n[nH]c(=O)c3ccccc23)ccc1F)N1CCN(C(=O)C2CC2)CC1` + CN(C)c1ccc(Nc2c3ccc(NC(=O)CCN4CCCC4)cc3nc3cc(NC(=O)CCN4CCCC4)ccc23)cc1, the IC50 (second compound 0.0316 µM) is reported as over 10 µM, the IC50 (second compound 0.1 µM) is reported as over 10 µM and the IC50 (second compound 0.316 µM) is reported as over 10 µM. It also gave an IC50 (second compound 1 µM) of over 10 µM, an IC50 (second compound 3.16 µM) of over 10 µM and an IC50 (second compound 10 µM) of over 10 µM. The viability, T/C [1] was 111%, the viability, T/C [2] was 99.1% and the viability, T/C [3] was 108%. For the same compound, the viability, T/C [4] was 98.8%, the viability, T/C [5] was 106% and the viability, T/C [6] was 107%. For the same compound, the viability, T/C [7] was 109%, the viability, T/C [8] was 104% and the viability, T/C [9] was 100%. For the same compound, the viability, T/C [10] was 104%, the viability, T/C [11] was 99.8% and the viability, T/C [12] was 108%. It also gave a viability, T/C [13] of 103%, a viability, T/C [14] of 99.3% and a viability, T/C [15] of 103%. It also gave a viability, T/C [16] of 98.4%, a viability, T/C [17] of 109% and a viability, T/C [18] of 107%. The viability, T/C [19] was 96%, the viability, T/C [20] was 95.6% and the viability, T/C [21] was 104%. It also gave a viability, T/C [22] of 93.7%, a viability, T/C [23] of 109% and a viability, T/C [24] of 98.5%. It also gave a viability, T/C [25] of 91.2%, a viability, T/C [26] of 82% and a viability, T/C [27] of 91.2%. For the same compound, the viability, T/C [28] was 84%, the viability, T/C [29] was 93.4% and the viability, T/C [30] was 91.8%. The viability, T/C [31] was 73.1%, the viability, T/C [32] was 76.3% and the viability, T/C [33] was 75.4%. For the same compound, the viability, T/C [34] was 73.2%, the viability, T/C [35] was 80.5% and the viability, T/C [36] was 81.5%.

— PubChem BioAssay AID2060491 (Molecular Pharmacology Branch, DTP, NCI, 2025)
